Key:
[1] = system: MICA; test: Anti-MICA antibody ELISA with recombinant MICA protein on longitudinal patient sera; format: in vivo, human; settings: patient MEL15; sera diluted 1:500
Description: (§1) Anti-MICA antibodies and sMICA levels were measured with ELISAs using recombinant MICA protein (ProSpec-Tany TechnoGene Inc.) and anti-human MICA monoclonal antibodies (R&D Systems). The lower limits of the assay were 90 pg/ml. The Wilcoxon rank sum test with no adjustments for multiple comparisons was used to analyze the differences among the normal donors, MGUS, and MM patients. For complement assays, 293T and 293-T-MICA cells, generated by retroviral mediated gene transfer were incubated with patient sera and human complement (Sigma-Aldrich) and lysis quantified using MTT (Roche Diagnostic GmbH).
The humoral response to MICA was analyzed by an ELISA with recombinant MICA protein as described in Example 1. Longitudinal sera samples from MEL15 were diluted 1:500. Downward arrows denote tumor cell vaccinations and upward arrows depict infusions of MDX-010.
Patient M37 entered study with visceral melanoma metastases, which were completely resected for vaccine manufacture. […] Subsequent isolated recurrences were processed into additional vaccines, whereas the patient succumbed to progressive disease 4.5 years after study entry.

[2] = system: sMICA; test: sMICA ELISA on longitudinal MEL15 sera; format: in vivo, human; settings: patient MEL15 sera
Description: as §1
Soluble MICA (sMICA) levels were also analyzed. […] The reduction in sMICA was confirmed with immunoblotting analysis of MEL15 sera using an anti-MICA monoclonal antibody.

[3] = system: U226 MM cells; test: Surface MICA expression by flow cytometry in U226 MM cells; format: cell-based; settings: 20 μM Bortezomib overnight
Description: (§2) PBMCs and bone marrow aspirates were processed by Ficoll-Hypaque (Pharmacia) density-gradient centrifugation. PBMCs from healthy donors or patients were incubated for 48 hours in patient or control sera (10%) in complete media and stained with PE-conjugated anti-NKG2D mAb (Pharmingen), FITC-conjugated anti-CD3 mAb (BD-Biosciences Pharmingen), and either PC5-conjugated anti-CD8 mAb or PC5-conjugated anti-CD56 mAb (Beckman-Coulter). In Examples 9-11, antibodies used, in addition to the above, were: FITC-conjugated anti-CD138, PE-conjugated anti-MICA mAb (R&D Systems), and anti-ERp5 (Axxora Platform) followed by FITC-conjugated anti-rabbit (Southern Biotech). Cells were analyzed with a FW501 flow cytometer (Beckman-Coulter) and FlowJo software (Tree Star). Cells were gated for CD3^+CD8^+ T cells and CD3^−CD56^+ NK cells. […] Cells were analyzed with a FACScan cytometer (Becton Dickinson). […]
(§3) For the experiment shown in FIG. 16B, the indicated MM cells were treated with 20 μM Bortezomib overnight and surface MICA expression was determined with flow cytometry. […] IFN-γ production was measured by ELISPOT against dendritic cells loaded with U226 MM cells. […]

[4] = system: MM-1S cells; test: Immunoblotting for phospho-ATM and total ATM in MM-1S cells; format: cell-based; settings: 10 μM Bortezomib
Description: (§4) Antibodies used for immunoblotting were: anti-phospho-ATM (ser 1981), anti-ATM, anti-phospho-ATR (ser 428), anti-ATR, anti-phospho-chk-1 (ser 280) and anti-phospho-chk-2 (thr 68) (Cell Signaling, Beverly, Mass.). Immunoblotting was performed according to standard methods. In some experiments, U226 cells were transiently transfected with expression plasmids encoding human chk-1 shRNA (5′-[…]-3′) (SEQ ID NO: 1), chk-2 shRNA, or ATM shRNA (Upstate cell signaling, Lake Placid, N.Y.) according to the manufacturer's instructions. The efficiency of gene knockdown was 50%-90% as assessed by immunoblotting.
(§5) U226, RPMI, and MM-1R cells were obtained from the American Type Culture Collection (Manassas, Va.), and MM-1S cells were a gift of Dr. Steven Rosen (Northwestern University). […] U226-MICA cells were generated with retroviral mediated gene transfer according to standard methods.
(§6) The effect of the proteasome inhibitor Bortezomib, a MM therapeutic, on MICA expression and the DNA damage response pathway was analyzed. U226 and RPMI-8226 MM cells were treated with 20 μM Bortezomib, 250 μg/ml dexamethasone or 10 μg/ml aphidicolin (a DNA polymerase inhibitor that served as a control for inducing DNA damage) for the indicated times. Cell lysates were prepared and evaluated for phospho-ATM (ser 1981), ATM, phospho-chk-2 (thr 68) or chk-2 by immunoblotting. […]

[5] = system: U226 MM cells; test: Dendritic cell cross-presentation of MGUS sera-coated treated U226 MM cells, IFN-γ ELISPOT of CD8+ T cells; format: cell-based; settings: drug treated U226 MM cells coated with MGUS sera; CD8+ T cells stimulated seven days
Description: Donor peripheral blood mononuclear cells (PBMCs) were incubated in 10% patient sera as described above, and NK cells, isolated by magnetic cell sorting (Miltenyl Biotech), were tested in four-hour lysis assays against ^51Cr-labeled K562 target cells. The spontaneous release in all assays was less than 20% of the maximum. Dendritic cells (generated from adherent PBMCs with GM-CSF and IL-4) were co-cultured with opsonized tumor cells (1:1 ratio) for 20 hours, matured with LPS (Sigma-Aldrich) for 24 hours, and then used to stimulate autologous CD8+ T cells, isolated by magnetic cell sorting, for seven days. Antigen specific IFN-γ production was then determined by ELISPOT. For enzyme-linked immunospot (ELISPOT) analysis, ImmunoSpotplates (Cellular Technology) were coated overnight at 37° C. with 10 μg/ml anti-IFN-γ mAb (Mabtech). […] Spots were developed by using BCIP/NBT as a color development substrate and counted with an ImmunoSpot microplate reader (Cellular Technology, Cleveland).
as §3

[6] = system: RPMI-8226 MM cells; test: Immunoblotting for DNA damage response (phospho-ATM, phospho-chk-2) in RPMI-8226 MM cells; format: cell-based; settings: 20 μM Bortezomib or 250 μg/ml dexamethasone
Description: as §4, §5, §6

[7] = system: U226 MM cells; test: Immunoblotting for DNA damage response (phospho-ATM, phospho-chk-2) in U226 MM cells; format: cell-based
Description: as §4, §5, §6

[8] = system: MM-1R MM cells; test: Surface MICA expression by flow cytometry in MM-1R MM cells; format: cell-based; settings: 20 μM Bortezomib overnight
Description: as §2, §3

Compound	anti-MICA antibody titers [1]	sMICA levels [2]	surface expression of MICA [3]	ATM (total ATM, immunoblot) [4]	dendritic cell cross-presentation of treated U226 cells by MGUS sera (IFN-γ ELISPOT) [5]	phosphorylation of ATM (ser 1981) and chk-2 (thr 68) [6]	ATM phosphorylation (ser 1981) ([7]; 10 μM Bortezomib)	phosphorylation of ATM (ser 1981) and chk-2 (thr 68) ([7]; 20 μM Bortezomib or 250 μg/ml dexamethasone)	surface expression of MICA [8]
MDX-010: fully human anti-CTLA-4 blocking monoclonal antibody	elevated levels of anti-MICA antibodies	sharp decrease							
CC(C)C[C@H](NC(=O)[C@H](Cc1ccccc1)NC(=O)c1cnccn1)B(O)O [Bortezomib]			increased the surface expression of MICA	stimulated the degradation of ATM	as efficiently as U226-MICA cells	but not RPMI MM cells	induced ATM phosphorylation	triggered the rapid phosphorylation	increased the surface expression of MICA
